Patent publication US20150352108A1, “AMINO-PYRIMIDINE COMPOUNDS AS INHIBITORS OF TBK1 AND/OR IKK EPSILON” (Alzheimer's Institute of America, priority 2009, published 2015)
Where two headings read alike, the source gives them in different places.

What was measured:
[1] = target: T1, TBK1 (Homo sapiens, UniProt Q9UHD2); assay: In-vitro TBK1 kinase assay ([γ33]ATP filter-plate); type: biochemical
T1 construct: His-tag; made in house; host or cells: Sf9 insect cells
T1 sequence (Q9UHD2 1-729): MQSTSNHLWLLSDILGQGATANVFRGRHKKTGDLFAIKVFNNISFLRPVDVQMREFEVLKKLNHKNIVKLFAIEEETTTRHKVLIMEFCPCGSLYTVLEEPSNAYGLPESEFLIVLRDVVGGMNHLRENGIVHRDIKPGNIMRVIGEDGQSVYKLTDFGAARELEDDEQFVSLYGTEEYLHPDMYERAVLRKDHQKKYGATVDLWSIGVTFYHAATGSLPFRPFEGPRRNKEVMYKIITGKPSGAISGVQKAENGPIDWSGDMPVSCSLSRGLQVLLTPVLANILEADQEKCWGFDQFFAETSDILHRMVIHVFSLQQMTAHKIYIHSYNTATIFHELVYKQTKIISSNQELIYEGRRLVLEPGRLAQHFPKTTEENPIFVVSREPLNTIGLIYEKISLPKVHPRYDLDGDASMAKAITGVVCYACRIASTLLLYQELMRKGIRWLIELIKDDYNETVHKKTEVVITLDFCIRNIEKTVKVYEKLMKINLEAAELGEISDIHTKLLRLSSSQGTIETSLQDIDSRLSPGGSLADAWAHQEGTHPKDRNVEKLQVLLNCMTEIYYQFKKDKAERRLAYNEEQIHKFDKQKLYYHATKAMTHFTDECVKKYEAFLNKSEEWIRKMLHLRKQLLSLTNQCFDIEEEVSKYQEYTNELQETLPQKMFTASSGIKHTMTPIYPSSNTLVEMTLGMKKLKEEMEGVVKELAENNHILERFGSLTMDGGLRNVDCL
Description: IKKε enzyme was produced as a His-tag fusion in Sf9 cells and used at a final concentration of […]. TBK1 enzyme was produced as a His-tag fusion in Sf9 cells and used at a final concentration of 0.1 μg/ml. Kinase reactions were carried out in reaction buffer using myelin basic protein (Millipore, Ballerica, Mass.) or casein (Sigma, St. Louis, Mo.) as substrate at an ATP concentration equal to twice the Km,ATP value for each enzyme, corresponding to 32 μM ATP for IKKε and 60 μM ATP for TBK1, in the presence of 0.3 μCi [γ^33]ATP (PerkinElmer, Waltham, Mass.). Final enzyme concentrations were 0.1 or 0.015 μg/ml (IKKε) and 0.1 or 0.02 μg/ml (TBK1), representing “normal” and “sensitized” assay conditions respectively. Test compounds (or DMSO solvent as a control) were added prior to initiation of the reactions. Reactions were terminated after 30-45 minutes by adding 3% phosphoric acid. Terminated reactions were transferred to P-81 cellulose phosphate filterplates (Whatman, Inc., Piscataway, N.J.) and washed with 1% phosphoric acid on a vacuum apparatus. After air drying, scintillant (PerkinElmer, Waltham, Mass.) was added and the plates were read on a PerkinElmer TopCount NXT instrument. Counts were normalized to DMSO controls after background subtraction.

[2] = target: T2, IKKε (Homo sapiens, UniProt Q14164); assay: In-vitro IKKε kinase assay ([γ33]ATP filter-plate); type: biochemical
T2 construct: His-tag; made in house; host or cells: Sf9 insect cells
T2 sequence (Q14164 1-716): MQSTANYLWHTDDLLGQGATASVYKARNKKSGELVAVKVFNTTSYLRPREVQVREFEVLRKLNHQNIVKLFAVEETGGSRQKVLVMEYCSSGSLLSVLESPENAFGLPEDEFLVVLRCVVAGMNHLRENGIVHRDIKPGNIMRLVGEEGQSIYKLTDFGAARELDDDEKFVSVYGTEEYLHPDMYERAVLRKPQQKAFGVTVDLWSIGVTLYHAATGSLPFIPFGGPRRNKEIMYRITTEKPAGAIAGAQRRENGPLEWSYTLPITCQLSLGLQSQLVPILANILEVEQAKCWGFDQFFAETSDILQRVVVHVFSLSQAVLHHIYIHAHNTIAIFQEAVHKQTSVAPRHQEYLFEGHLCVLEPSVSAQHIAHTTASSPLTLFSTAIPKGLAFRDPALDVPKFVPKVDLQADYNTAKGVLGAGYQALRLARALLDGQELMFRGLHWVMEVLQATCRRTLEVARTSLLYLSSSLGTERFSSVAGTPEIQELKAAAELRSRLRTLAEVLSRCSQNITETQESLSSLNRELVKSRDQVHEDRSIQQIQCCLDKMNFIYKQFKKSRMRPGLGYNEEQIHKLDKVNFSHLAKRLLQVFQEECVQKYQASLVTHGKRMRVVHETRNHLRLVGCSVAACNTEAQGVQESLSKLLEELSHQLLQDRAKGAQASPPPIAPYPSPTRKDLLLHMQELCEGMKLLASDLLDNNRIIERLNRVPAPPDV
How it was run: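 His-tagged IKKε and TBK1 from Sf9 cells were assayed with myelin basic protein or casein and [γ33]ATP at 2×Km ATP (32 μM for IKKε, 60 μM for TBK1). Enzyme was 0.1 or 0.015 μg/ml for IKKε and 0.1 or 0.02 μg/ml for TBK1 (normal/sensitized). Reactions ran 30-45 min, were filter-captured, scintillation-counted, and normalized to DMSO after background subtraction.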

[3] = text bins, read-out: IC50 for inhibition of the kinase activity of TBK1
[4] = text bins, read-out: IC50 for inhibition of the kinase activity of IKKε

Structure (SMILES) | IC50 [1, 3] [nM] | IC50 [2, 4] [nM] | IC50 ([1]; Table 3, read-out: TBK1 IC50) [nM] | IC50 ([2]; Table 3, read-out: IKKε IC50) [nM]
COc1ccc(-c2ccnc(Nc3ccc(N4CCS(=O)(=O)CC4)cc3)n2)cc1C#N [compound 313] | 10 to 100 | 5 to 50 |  | 
COc1cc(Nc2nccc(-c3ccc(OC4CCN(C(=O)[C@H](C)O)CC4)c(C#N)c3)n2)ccc1C(=O)NCCCN(C)C [compound 376, 4-({4-[3-cyano-4-({1-[(2S)-2-hydroxypropanoyl]piperidin-4-yl}oxy)phenyl]pyrimidin-2-yl}amino)-N-[3-(dimethylamino)propyl]-2-methoxybenzamide] | < 10 | < 5 |  | 
COCCNCc1ccc(Nc2nccc(-c3ccc(OCC4CC4)c(C#N)c3)n2)cc1 [compound 581, 2-(Cyclopropylmethoxy)-5-{2-[(4-{[(2-methoxyethyl)amino]methyl}phenyl)amino]pyrimidin-4-yl}benzonitrile] | < 10 | < 5 |  | 
N#Cc1cc(-c2ccnc(Nc3cccc(CC(=O)NCCCN4CCOCC4)c3)n2)ccc1OC1CCOCC1 [compound 407, 2-[3-({4-[3-Cyano-4-(tetrahydro-2H-pyran-4-yloxy)phenyl]pyrimidin-2-yl}amino)phenyl]-N-[3-(morpholin-4-yl)propyl]acetamide] | < 10 | 5 to 50 |  | 
COc1cc(Nc2nccc(-c3ccc(OC)c(C#N)c3)n2)cc(OC2CCN(C)CC2)c1 [Example 259, 2-Methoxy-5-[2-({3-methoxy-5-[(1-methylpiperidin-4-yl)oxy]phenyl}amino)pyrimidin-4-yl]benzonitrile] | 10 to 100 | 5 to 50 |  | 
COc1cc(Nc2nccc(-c3ccc(OC4CCOCC4)c(C#N)c3)n2)ccc1S(=O)(=O)NCCCN(C)C [Example 237, 4-({4-[3-cyano-4-(tetrahydro-2H-pyran-4-yloxy)phenyl]pyrimidin-2-yl}amino)-N-[3-(dimethylamino)propyl]-2-methoxybenzene-sulfonamide] | < 10 | < 5 |  | 
CC(C)COc1ccc(-c2ccnc(Nc3cccc(CS(=O)(=O)NCCO)c3)n2)cc1C#N [compound 534, 1-[3-({4-[3-Cyano-4-(2-methylpropoxy)phenyl]pyrimidin-2-yl}amino)phenyl]-N-(2-hydroxyethyl) methanesulfonamide] | < 10 | < 5 | 0.4 | 0.8
CS(=O)(=O)N1CCC(Oc2ccc(-c3ccnc(Nc4ccc(N5CCOCC5)cc4)n3)cc2C#N)C1 (stereo not shown) [Example 257, 2-{[1-(methylsulfonyl)pyrreolidin-3-yl]oxy}-5-(2-{[4-(morpholin-4-yl)phenyl]amino}pyrimidin-4-yl)benzonitrile] | 10 to 100 | 5 to 50 |  | 
CN1CCN(c2ccc(Nc3nccc(-c4ccc(OC5CCNC5)c(C#N)c4)n3)cc2)CC1 (stereo not shown) [Example 90, 5-(2-{[4-(4-methylpiperazin-1-yl)phenyl]amino}pyrimidin-4-yl)-2-(pyrrolidin-3-yloxy)benzonitrile] | 10 to 100 | 5 to 50 |  | 
CCOc1cccc(Nc2nccc(-c3cccc(C#N)c3)n2)c1 [Example 276, 3-{2-[(3-Ethoxyphenyl)amino]pyrimidin-4-yl}benzonitrile] | 100 to 500 | 50 to 500 |  | 
COc1ccc(Nc2nccc(-c3cc(Cl)cc(C#N)c3)n2)cc1OC [Example 248, 3-Chloro-5-{2-[(3,4-dimethoxyphenyl)amino]pyrimidin-4-yl}benzonitrile] | 10 to 100 | 5 to 50 |  | 
COc1ccc(-c2ccnc(Nc3ccc(S(=O)(=O)NCCO)c(OC)c3)n2)cc1C#N [Example 281, 4-{[4-(3-Cyano-4-methoxyphenyl)pyrimidin-2-yl]amino}-N-(2-hydroxyethyl)-2-methoxybenzene-sulfonamide] | 10 to 100 | 5 to 50 |  | 
COc1cc(Nc2nccc(-c3ccc(OC4CCN(C(C)=O)CC4)c(C#N)c3)n2)cc(OC)c1OC [Example 34, 2-[(1-acetylpiperidin-4-yl)oxy]-5-{2-[(3,4,5-trimethoxyphenyl)amino]pyrimidin-4-yl}benzonitrile] | < 10 | < 5 |  | 
CC(C)NC(=O)Nc1ccc(-c2ccnc(Nc3ccc(N4CCOCC4)cc3)n2)cc1C#N [Example 60, 1-[2-cyano-4-(2-{[4-(morpholin-4-yl)phenyl]amino}pyrimidin-4-yl)phenyl]-3-propan-2-ylurea] | 10 to 100 | 5 to 50 |  | 
N#Cc1cc(-c2ccnc(Nc3ccc(CNC(=O)c4cnc(N)s4)cc3)n2)ccc1OC1CCOCC1 [compound 490, 2-amino-N-[4-({4-[3-cyano-4-(tetrahydro-2H-pyran-4-yloxy)phenyl]pyrimidin-2-yl}amino)benzyl]-1,3-thiazole-5-carboxamide] | < 10 | < 5 | 0.3 | 1.4
COc1ccc(-c2ccnc(Nc3ccc(N4CCCNC(=O)C4)c(OC)c3)n2)cc1C#N [Example 104, 2-Methoxy-5-(2-{[3-methoxy-4-(3-oxo-1,4-diazepan-1-yl)phenyl]amino}pyrimidin-4-yl)benzonitrile] | < 10 | < 5 |  | 
CC(C)C(=O)Nc1ccc(-c2ccnc(Nc3cccc(CCN4CCOCC4)c3)n2)cc1C#N [compound 466, N-{2-cyano-4-[2-({3-[2-(morpholin-4-yl)ethyl]phenyl}amino)pyrimidin-4-yl]phenyl}-2-methylpropanamide] | < 10 | 5 to 50 |  | 
N#Cc1cc(-c2ccnc(Nc3ccc(F)c(OCC(O)CO)c3)n2)ccc1OC1CCOCC1 (stereo not shown) [compound 608, 5-(2-{[3-(2,3-Dihydroxypropoxy)-4-fluorophenyl]amino}pyrimidin-4-yl)-2-(tetrahydro-2H-pyran-4-yloxy)benzonitrile] | < 10 | < 5 |  | 
CN(C)CCOc1ccc(Nc2nccc(-c3cccc(C#N)c3)n2)cc1 [Example 291, 3-[2-({4-[2-(Dimethylamino)ethoxy]phenyl}amino)pyrimidin-4-yl]benzonitrile] | 10 to 100 | 50 to 500 |  | 
N#Cc1cc(-c2ccnc(Nc3ccc(NC(=O)N4CCOCC4)cc3)n2)ccc1OC1CCOCC1 [Example 13, N-[4-({4-[3-cyano-4-(tetrahydro-2H-pyran-4-yloxy)phenyl]pyrimidin-2-yl}amino)phenyl] morpholin-4-carboxamide] | < 10 | 5 to 50 |  | 
N#Cc1cc(-c2ccnc(Nc3ccc(S(=O)(=O)N4CCOCC4)cc3)n2)ccc1OC1CCOCC1 [compound 363, 5-(2-{[4-(morpholin-4-ylsulfonyl)phenyl]amino}pyrimidin-4-yl)-2-(tetrahydro-2H-pyran-4-yloxy)benzonitrile] | < 10 | 5 to 50 |  | 
